In patent US6994981B2, “Modulators of paraptosis and related methods” (The Buck Institute, priority 2002, dated 2006):
Residues, ends and D or L forms follow the SMILES beside them. *: point of attachment. Cbz = O=C(OCc1ccccc1)*; CH2F = FC*

What was measured:
[1] = system: IGFIR-IC transfected 293T cells; assay: Inhibition of IGFIR-IC induced paraptosis in transfected 293T cells, LDH assay; format: cell-based, human; details: concentration not given
Procedure: Paraptosis was induced in 293T cells by expressing the intracellular domain of the insulin-like growth factor I receptor (IGFIR-IC) in these cells using transient transfection as described above.
(§1) Test compounds were added to IGFIR-IC transfected 293T cells at the time of transfection.
The TRAF2 dominant negative mutant contains a deletion of the amino terminal 271 amino acids of the protein. The ratio of IGFIR-IC:AIP1 and IGFIR-IC:TRAF2DN was 1:3. […] Antisense oligonucleotide constructs for JNK1 or JNK2 (50–100 nM) were transfected into 293T cells one day before transfection with the IGFIR-IC construct. For all inhibition assays, cell viability was measured using the LDH assay.

[2] = system: SP-induced paraptosis; assay: Inhibition of SP-induced paraptosis, cells not specified; format: cell-based; details: concentration not given
[3] = system: paraptosis; details: cited from earlier work
[4] = system: paraptosis induced by caspase 7, caspase 8 or caspase 9; assay: Inhibition of paraptosis induced by caspases; format: cell-based
Procedure: as §1

[5] = system: striatal, cortical, and hippocampal neurons; assay: SP-induced cell death in primary striatal, cortical and hippocampal neurons, trypan blue viability and staining; format: cell-based, rat; details: caspase inhibitors at 50 μM
Procedure: Rat neuronal primary cell cultures were also used to assay for inducers and inhibitors of paraptosis. Briefly, primary striatal, cortical and hippocampal cultures were prepared from 17-day-old Sprague-Dawley rat embryos (B&K). The tissue was dissected, minced and trypsinized for five minutes using 0.25% trypsin (Cell Grow). After the addition of 10% horse serum (Life Technologies) to inhibit the trypsin, the cell suspension was triturated 15–20 times with a 10 ml syringe and centrifuged for five minutes at 800×g. The pellet was resuspended in MEM-PAK (UCSF Cell Culture facility), supplemented with 2.02 gm glucose, 2 mM GLUTAMAX™ (Life Technologies) and penicillin/streptomycin (100 U/ml). The suspension was filtered through a […] cell strainer and the final culture medium contained 5% horse serum. Subsequently, 3-4×10^5 cells per Cm^2 were seeded onto either poly-D-lysine precoated 8-well chamber slides (Becton-Dickson Labware) or 96 well plates precoated with […] of poly-D-lysine (Sigma) in water. After 30 minutes of incubation time, unattached cells were removed together with the medium and replaced with glucose enriched MEM-PAK plus 5% horse serum. The cultures were then incubated at 37° C. in 95% air 5% carbon dioxide with 95% humidity. Cultures were used for experiments between day 1 and day 7 when glial contamination was at a minimum.
Primary neuronal cells were prepared as described in Example I. SP (SIGMA) at a concentration of 0.1 nM–100 μM was added 24–48 hrs after seeding, in the presence of 2.5% horse serum. When the cultures were maintained for more than 5 days, 10 μM cytosine arabinoside was added for 24 hours, beginning 3 days after plating the cells. Viability was quantified by trypan blue staining of the total cell population.
The following compounds were added at the same time as SP in the indicated experiments: 5 nM L-732, 138; 1 nM L-733,060; 1 μg/ml Actinomycin D or 1 μg/ml Cycloheximide. All of these compounds were obtained from SIGMA. The caspase inhibitors zVAD.fmk and BAF were added at 50 μM and obtained from Enzyme System Products, Livermore, Calif.
Either neuronal primary cultures or human embryonic kidney 293T cells were fixed with 4% paraformaldehyde and stained with 0.5 μg/ml DAPI (Molecular Probes) or Hoechst(SIGMA). […]
(§2) The protein kinase inhibitors were added 30 min before SP exposure at the following concentrations: 10 μM Rp-8-Br-cAMPS (adenosin 3′,5′-cyclic monophosphorothioate, 8-bromo-, Rp-isomer, sodium salt) which is a PKA inhibitor; 50 nM Calphostin C, which is a PKC inhibitor; 10 μM PD 98059 which is a MAPKK (MEK) inhibitor. These compounds were obtained from Calbiochem. Viability was quantified by trypan blue staining of the total cell population.

[6] = system: caspase-8 transfected cells; assay: Apoptosis induced by over-expression of caspase-8 in 293T cells; format: cell-based, human; details: caspase inhibitors at 50 μM
Procedure: (§3) Human embryonic kidney 293T cells were grown as described in Example I. Transient transfection was performed using Superfect (Qiagen) as described by the manufacturer. Briefly, 2×10^5 cells/well were seeded into 35 mm wells 16 hr prior to transfection. Superfect:DNA complexes were added at a 5 μl:2 μg ratio for 3 hr; then the medium was replaced and after 24 hr SP was added. At 24–48 hr after addition of SP cell death was quantified as follows: the media containing floating cells were collected and centrifuged 10 min at 2000×g, the pellet was resuspended in PBS/trypan blue and the cells were counted using a hematocytometer. When other compounds were used, they were added at the same time as SP: zVAD.fmk or BAF was added at 50 μM and obtained from Enzyme System Products, Livermore, Calif.

[7] = system: 293T cells transfected with NK1R; assay: SP-induced, NK1R-mediated cell death in 293T cells transfected with NK1R, trypan blue and staining; format: cell-based, human; details: caspase inhibitors at 50 μM
Procedure: as §3
Briefly, the method entailed cloning the full-length (1.2 kb) NK1R cDNA (Genbank Accession No. M31477) by RT-PCR from adult rat hippocampal RNA into the XbaI/EcoRI sites of the vector pcDNA3.1 (Invitrogen), using the following oligonucleotides: forward 5′[…] 3′ (SEQ ID NO:2); reverse 5′[…] 3′ (SEQ ID NO:3).
Cells were stained according to the manufacturer's instructions (Clontech). Briefly, cellswere washed with binding buffer and incubated with FITC-Annexin-V or EGFPAnnexin-V for 5–10 min and fixed with 4% paraformaldehyde.
Cells were fixed 10 min with 4% paraformaldehyde and stained according to the manufacturer's instructions (Promega).
as §2

[8] = system: rat neuronal primary cell cultures; assay: Induction of paraptosis in rat neuronal primary cell cultures, LDH cell death assay; format: cell-based
Procedure: Rat neuronal primary cell cultures were also used to assay for inducers and inhibitors of paraptosis. Briefly, primary striatal, cortical and hippocampal cultures were prepared from 17-day-old Sprague-Dawley rat embryos (B&K). The tissue was dissected, minced and trypsinized for five minutes using 0.25% trypsin (Cell Grow). After the addition of 10% horse serum (Life Technologies) to inhibit the trypsin, the cell suspension was triturated 15–20 times with a 10 ml syringe and centrifuged for five minutes at 800×g. The pellet was resuspended in MEM-PAK (UCSF Cell Culture facility), supplemented with 2.02 gm glucose, 2 mM GLUTAMAX™ (Life Technologies) and penicillin/streptomycin (100 U/ml). […]
Subsequently, compounds were added to 293T cells and/or rat neuronal primary cell culture cells in order to determine if the compounds could induce paraptosis. Cell death was assayed using the lactate dehydrogenase (LDH) assay, in which the relative amount of enzyme released from dying cells in the medium is measured by following the disappearance of nicotinamide adenine dinucleotide, reduced form (NADH) in the following reaction: pyruvate+NADH <−>NAD^++ lactate. […] NADH disappearance was assessed by kinetic photmetric readings at a 340 nm wavelength at 19 minute intervals over a period of 2 hours and 30 minutes.

[9] = system: 293T cells; assay: Induction of paraptosis in 293T cells, LDH cell death assay; format: cell-based, human; details: 293T cells
Procedure: Human embryonic kidney 293T cell line cells were used to assay for inducers and inhibitors of paraptosis. These cells were cultured in high glucose DMEM (Life Technologies) supplemented with 10% FBS (Sigma) and 1% penicillin/streptomycin (Life Technologies). The cultures were incubated at 37° C. in 95% air 5% carbon dioxide with 95% humidity.
Subsequently, compounds were added to 293T cells and/or rat neuronal primary cell culture cells in order to determine if the compounds could induce paraptosis. Cell death was assayed using the lactate dehydrogenase (LDH) assay, in which the relative amount of enzyme released from dying cells in the medium is measured by following the disappearance of nicotinamide adenine dinucleotide, reduced form (NADH) in the following reaction: pyruvate+NADH <−>NAD^++ lactate. Briefly, 50 μl of culture medium for either 293T cells or 100 μl of culture medium for neuronal primary culture were dispensed in a 96 well plate to which 100 μl of a solution consisting of 5 mg of NADH dissolved in 20 ml of PBS and 0.5 ml of 100 mM NaPyruvate. NADH disappearance was assessed by kinetic photmetric readings at a 340 nm wavelength at 19 minute intervals over a period of 2 hours and 30 minutes.
Constructs of pcDNA3 containing procaspase-7 or procaspase-8 were transiently transfected into 293T cells using Lipofect-Amine (GIBCO-BRL) according to the manufacturer's instructions. Briefly, 1×10^6 293T cells were seeded in 6 cm dishes, and transfected the next day using a ratio of DNA:Lipofect-Amine of 1 μg:5 μl. Transfection efficiency was 60–80% for 293T cells, as determined by X-gal staining after transfection of a β-galactosidase construct.

N#CC(=C(/N)Sc1ccccc1N)/C(C#N)=C(/N)Sc1ccccc1N [UO126]
effect on IGFIR-induced paraptosis [1]: can be inhibited | effect on SP-induced paraptosis [2]: can be inhibited

COC(=O)C[C@H](NC(=O)[C@H](C)NC(=O)[C@@H](NC(=O)OCc1ccccc1)C(C)C)C(=O)CF [zVAD.fmk] (Cbz-Val-Ala-Asp(OMe)-CH2F)
effect of caspase inhibitors on paraptosis [3]: lack of effect | inhibition of paraptosis induction by caspase-7 and caspase-8 [4]: subject to inhibition | effect on SP-induced cell death in neurons [5]: not inhibited | effect on apoptosis induced by over-expression of caspase-8 [6]: completely abolished | effect on NK1R-mediated cell death in 293T cells [7]: lack of effect

N[C@@H](CCC(=O)O)C(=O)O [Glutamic Acid, (S)-2-aminopentanedioic acid]
concentration at which found to induce paraptosis [8]: 50 to 500 µM

CCCCCCCCCCCCC/C=C/[C@@H](O)[C@H](CO)NC(C)=O [C2 ceramide, N-Acetyl-D-sphingosine]
concentration at which found to induce paraptosis [9]: 15 to 100 µM | concentration at which found to induce paraptosis [8]: 15 to 100 µM
